Measurements as given in US9023767B2, “γ-Secretase substrates and methods of use” (Memorial Sloan-Kettering Cancer Center, priority 2009, dated 2015).
Read-outs that look alike come from different tables or passages of the source.

Experiments:
γ-secretase [1] = biological target: T1, γ-secretase (Homo sapiens (Human), UniProt P49768); test: HTRF γ-secretase assay with Sb4 substrate; format: biochemical
Source text: We set out to transfer the assay conditions obtained with the ECL method to an HTRF detection based format (FIG. 10b). The HTRF detection mixture consisted of mouse G2-10 antibody for recognition of the C-terminal epitope of the cleaved product, a Europium-labeled anti-mouse antibody (commonly, an antibody is conjugated with a cryptate ligand that forms a three dimensional coordination cage structure surrounding a lanthanide such as Eu^3+), along with Streptavidin conjugated to a trimeric form of the fluorescent protein allophycocyanin referred to as XL665. Cleavage of Sb4 substrate allows G2-10 mouse antibody to bind to the Aβ40-processed site on the cleaved substrate. The Steptavidin-XL665 conjugate binds directly with the biotin moiety on the N-terminal end of the Sb4 derived product. The anti-mouse Europium antibody targets to the G2-10 antibody, bringing all of these entities into close proximity. The Europium and XL665 reagents are a compatible pair of donor-acceptor fluorophores, and excitation of Europium at 337 nm results in fluorescence energy resonance transfer (FRET) to XL665 which fluoresces at 665 nm (FIG. 10b).
Human γ-secretase was prepared from HeLa cell membranes as described previously (Li et al., 2000). Briefly, HeLa cell pellet was resuspended in 1×MES buffer (50 mM MES, pH 6.0, 150 mM KCl, 5 mM CaCl2, 5 mM MgCl2) and treated with ‘complete’ protease inhibitor (Boehringer Mannheim). The resuspended pellet was mechanically homogenized by passing the cells through the French Press (Spectronic Instruments), and subsequently spun down at 800 g to remove cell debris and nuclei. Next, the supernatants were spun at 100,000 g in order to pellet the membranes. The pelleted membranes were resuspended in 1×MES buffer to approximately 12 mg/ml. This entire procedure was performed at 4° C. HeLa membranes were solubilized using 1% CHAPSO detergent in 1×MES buffer with protease inhibitors. After incubating for 1 hr at 4° C., the membrane was spun down at 100,000 g and the supernatants were collected and stored at −70° C. The collected fraction is defined as solubilized γ-secretase.
HTRF conditions were initially optimized in a 384-well format using a final volume of 20 μl. The high control for this assay was defined as the observed γ-secretase activity in the presence of 1% DMSO (v/v) and the low control as the activity observed when including 100 nM final concentration of Compound E (v/v). First, we determined a tolerable DMSO concentration that would not interfere with γ-secretase activity. Even with 3% DMSO (v/v) present in the assay mixture, there was virtually no effect on the γ-secretase activity (FIG. 11a), which was critical as delivery of library screening compounds required a final concentration of 2% DMSO (v/v) in the γ-secretase reaction. Next, we titrated the HTRF mixture components in an effort to minimize reagent costs for use in high throughput screening. […] Additionally, we varied Europium conjugated anti-mouse antibody and determined that 1 nM of this reagent in the HTRF mixture was sufficient for our assay conditions even though the signal continued to increase with higher concentrations of the anti-mouse antibody (FIG. 11c).
We have further miniaturized the HTRF assay from the established 384-well format to a 1536-well platform enabling more efficient screening of large chemical libraries. […] Based on these optimization experiments, we set our final assay conditions at 0.3 nM G2-10, 1 nM anti-mouse antibody, 15 nM Streptavidin-XL665, and proceeded with the assay at 10 μl final volume (5 μl γ-secretase mix+5 μl HTRF mix) in the 1536-well format for screening.
The pilot assay was performed in duplicate on two separate days to account for any day-to-day variability. […]

γ-secretase [2] = biological target: T1, γ-secretase; test: In vitro γ-secretase assay, solubilized γ-secretase, ECL; format: biochemical; settings: Sb4 substrate
Source text: The γ-secretase cleaved Aβ product derived from C100Flag substrate was detected by a pair of antibodies (biotinylated 4G8 and ruthenylated G2-10*) while Sb4 cleaved product was detected by ruthenylated G2-10* alone (FIG. 10a) and quantified using electrochemiluminescence (ECL) technology.
An in vitro assay was based on the one previously reported by Li et al. (2000), except we utilized Sb4 substrate that eliminated the need for biotinylated antibody. […] All assays incorporate ruthenylated G2-10* antibody to detect 40-site cleavage of APP or recombinant Sb4 substrate and quantitated activity by measuring ECL.

γ-secretase [3] = biological target: γ-secretase (Mus musculus (Mouse), UniProt P49769); test: Cell-based activity assay, N2A cells stably over-expressing APP
Method: (§1) The potency of two structurally different GSIs was assayed in four unique γ-secretase activity assays. IC50 values were determined from the dose response curves using a non-linear regression analysis in the Prism software. An in vitro assay was based on the one previously reported by Li et al. (2000), except we utilized Sb4 substrate that eliminated the need for biotinylated antibody. The cell-based activity assay used N2A mouse neuroblastoma cells stably over-expressing APP and a biotinylated 4G8 antibody that binds the C-terminus of the amyloid beta peptide. The exo-cell assay incubated HeLa cells simultaneously with GSI, Sb4 substrate as well as 0.25% CHAPSO detergent prior to detecting substrate cleavage. Finally, the extended exo-cell assay first incubated HeLa cells with GSI for 24 hrs. Subsequently, the cells were washed 1× in PBS and then incubated with Sb4 substrate and CHAPSO detergent. The assay was then carried out exactly as described for the original exo-cell method. All assays incorporate ruthenylated G2-10* antibody to detect 40-site cleavage of APP or recombinant Sb4 substrate and quantitated activity by measuring ECL. The latter assays were performed as previously described (Li et al., 2000). In the in vitro assay, recombinant Sb4 substrate was incubated for 2.5 hours at 37° C. in pH 7.0 PIPES buffer in the presence of 0.25% CHAPSO detergent and solubilized γ-secretase at a final concentration of 40 ng/ul. The detection of cleaved substrate was determined using ruthenylated G2-10* antibody. Since the Sb4 substrate is biotinylated additional 6E10 biotinylated antibody used in earlier assays is not required. In the cell-based assay, N2A mouse neuroblastoma cells that stably overexpress amyloid precursor protein were incubated with γ-secretase inhibitors in a final concentration of 1% DMSO for 24 hrs. Following incubation, the supernatant was removed from the cells and assayed for Aβ40, the cleaved APP product, using ruthenylated G2-10* antibody as well as biotinylated 4G8 antibody.

γ-secretase [4] = biological target: T1, γ-secretase; test: Exo-cell γ-secretase assay, HeLa cells, Sb4 substrate; format: cell-based
Method: Therefore, HeLa cells were first incubated with Sb4 substrate, as well as CHAPSO detergent as depicted in FIG. 14c. Cells were seeded at their indicated concentration in 96-well plates and allowed to attach overnight. The next day, media was removed and cells were washed once with PBS. Fresh media was then added containing 0.25% CHAPSO detergent, Sb4 substrate to a final concentration of 1 μM, and 1% DMSO or γ-secretase inhibitor. This was incubated for 2.5 hours at 37° C. Media was removed and cell debris was pelleted from this media for 5 min. at 3,500 rpm. Supernatant was then added to ruthenylated G2-10* antibody that recognizes cleaved product, but not uncleaved substrate. This was incubated for an additional 2 hours at room temperature. Finally, magnetic streptavidin beads were added to a final concentration of 80 μg/ml and incubated for 30 min. at room temperature. Assay buffer was added to the samples and γ-secretase-mediated cleavage of substrate was monitored using electrochemiluminescence (ECL) (Li et al., 2000). (FIG. 14c).
as §1

SMILES: CC(NC(=O)Cc1cc(F)cc(F)c1)C(=O)NC1N=C(c2ccccc2)c2ccccc2N(C)C1=O (stereo not shown) [Compound E]
- IC50 (γ-secretase [1]): 1.1 nM
- IC50 (γ-secretase [2]): 1.2 nM
- IC50 (γ-secretase [3]; 24 hrs, Aβ40; read-out: Cell-based (nM), IC50): 4.6 nM
- IC50 (γ-secretase [3]; read-out: Cell-based (nM), IC50; 24 hrs, Aβ40): 4.6 nM
- IC50 (γ-secretase [4]; ECL detection, read-out: Exo-Cell (nM), IC50): 3.8 nM
- IC50 (γ-secretase [4]; IC50, exo-cell assay, HTRF detection): 5.4 nM
- IC50 (γ-secretase [4]; read-out: Exo-Cell (nM), IC50, ECL detection): 3.8 nM
